According to patent publication US10988459B2 (priority 2015, dated 2021):
Read-outs that look alike come from different tables or passages of the source.

Target: human RIP1 kinase domain (2-375) (Homo sapiens (Human), UniProt Q13546)
Assay: biochemical
Assay type: biochemical
Conditions: 50 uM ATP
Method in brief: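 Ki^app comes from Morrison tight-binding fits of fractional activity versus compound concentration. Activity was read as ADP production, via tracer displacement lowering fluorescence polarization (633 nm laser). Conditions: 2 h, 50 nM insect-cell-expressed enzyme, 50 uM ATP, 30 mM MgCl2, 1 mM DTT, 0.5% DMSO, pH 7.5 Hepes.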

[1] = tight-binding apparent inhibition constant, human RIP1 kinase domain (2-375) 50 nM, 2 hours, read-out: Ki
[2] = Table 1, apparent Ki (Morrison tight-binding fit), 50 nM RIP1 kinase domain, 2 hours incubation, read-out: RIP1 Ki
[3] = human RIP1 kinase domain (2-375), 2 hours incubation, Transcreener ADP assay, read-out: RIP1 Ki

Chain of human RIP1 kinase domain (2-375) (Q13546 2-375): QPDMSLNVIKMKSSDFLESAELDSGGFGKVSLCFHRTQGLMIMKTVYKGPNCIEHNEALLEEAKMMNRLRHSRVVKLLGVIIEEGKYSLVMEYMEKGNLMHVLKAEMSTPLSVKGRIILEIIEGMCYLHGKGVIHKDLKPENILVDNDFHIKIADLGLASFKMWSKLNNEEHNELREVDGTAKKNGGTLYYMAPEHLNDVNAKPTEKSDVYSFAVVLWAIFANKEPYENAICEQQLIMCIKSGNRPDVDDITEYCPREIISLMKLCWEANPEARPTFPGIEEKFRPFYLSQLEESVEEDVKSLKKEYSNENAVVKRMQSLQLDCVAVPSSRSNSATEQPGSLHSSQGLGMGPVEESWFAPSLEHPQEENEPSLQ

Ki [1] [nM] | Structure (SMILES) | also measured
68 | Cc1cc2n(n1)CC[C@H](NC(=O)c1ncc3cnn(C4CCCC4)c3n1)C(=O)N2C [Example 543, 1-cyclopentyl-N-[(6S)-2,4-dimethyl-5-oxo-7,8-dihydro-6H-pyrazolo[1,5-a][1,3]diazepin-6-yl]pyrazolo[3,4-d]pyrimidine-6-carboxamide] | 
570 | Cc1cc2n(n1)CC[C@H](NC(=O)c1ncc3cnn(C4CCOCC4)c3n1)C(=O)N2C [Example 559, N-[(6S)-2,4-dimethyl-5-oxo-7,8-dihydro-6H-pyrazolo[1,5-a][1,3]diazepin-6-yl]-1-tetrahydropyran-4-yl-pyrazolo[3,4-d]pyrimidine-6-carboxamide] | 
24 | CN1C(=O)[C@@H](NC(=O)c2ncn(Cc3ccc(Cl)cc3)n2)CCn2nc(C(F)(F)F)cc21 [Example 532] | 
 | CCC1CCc2n[nH]c(C(=O)N[C@H]3COc4ccccc4N(C)C3=O)c2C1 (stereo partly drawn) [Example 74, 5-ethyl-N-((S)-5-methyl-4-oxo-2,3,4,5-tetrahydrobenzo[b][1,4]oxazepin-3-yl)-4,5,6,7-tetrahydro-2H-indazole-3-carboxamide] | Ki [2]: 13 nM
 | CCC1(C)OCc2cnc(C(=O)N[C@H]3CCn4nc(C)cc4N(C)C3=O)nc21 (stereo partly drawn) [Example 326, N—((S)-2,4-dimethyl-5-oxo-5,6,7,8-tetrahydro-4H-pyrazolo[1,5-a][1,3]diazepin-6-yl)-7-ethyl-7-methyl-5,7-dihydrofuro[3,4-d]pyrimidine-2-carboxamide] | Ki (human RIP1 kinase domain (2-375), Transcreener ADP assay, 2 hours incubation, read-out: RIP1 Ki): 618 nM
 | CN1C(=O)[C@@H](NC(=O)c2ncn(Cc3ccccc3)n2)CC[C@H]2[C@@H]1C2(F)F (single isomer, unassigned) [Example 130] | Ki [3]: > 10000 nM
5 | O=C(N[C@H]1CCc2cc(F)cc(F)c2NC1=O)c1nc2n(n1)[C@@H](c1ccccc1)CC2 [Example 622, (5R)-5-phenyl-N-[(3S)-7,9-difluoro-2-oxo-1,3,4,5-tetrahydro-1-benzazepin-3-yl]-6,7-dihydro-5H-pyrrolo[1,2-b][1,2,4]triazole-2-carboxamide] | 
71 | O=C(N[C@H]1CCc2cc(F)cc(F)c2NC1=O)c1nc2n(n1)[C@H](c1ccccc1)CC2 (single isomer, unassigned) [Example 612] | 
 | CN1C(=O)C(NC(=O)c2nnc(Cc3ccccc3)[nH]2)CCCn2cncc21 (centres unmarked) [Example 102, 5-benzyl-N-(1-methyl-2-oxo-1,2,3,4,5,6-hexahydroimidazo[1,5-a][1,3]diazocin-3-yl)-4H-1,2,4-triazole-3-carboxamide] | Ki [3]: 335 nM
37 | CN1C(=O)[C@@H](NC(=O)c2nc3n(n2)CCC3c2ccccc2)CCn2nccc21 (stereo partly drawn) [Example 579, 7-phenyl-N-[(6S)-4-methyl-5-oxo-7,8-dihydro-6H-pyrazolo[1,5-a][1,3]diazepin-6-yl]-6,7-dihydro-5H-pyrrolo[1,2-b][1,2,4]triazole-2-carboxamide] | 
 | COC1CN(Cc2cc3n(n2)CC[C@H](NC(=O)c2ncn(Cc4ccccc4)n2)C(=O)N3C)C1 (single isomer, unassigned) [Example 725] | Ki (Table 5, apparent Ki (Morrison tight-binding fit), 50 nM RIP1 kinase domain, 2 hours incubation, read-out: Ki): 172 nM
15.9 | Cn1cc(-c2cccc3nc(C(=O)N[C@H]4COc5cc(F)cc(F)c5NC4=O)nn23)cn1 [Example 421, (S)—N-(6,8-difluoro-4-oxo-2,3,4,5-tetrahydrobenzo[b][1,4]oxazepin-3-yl)-5-(1-methyl-1H-pyrazol-4-yl)-[1,2,4]triazolo[1,5-a]pyridine-2-carboxamide] | 
299 | CN1C(=O)C(NC(=O)c2ncn(Cc3ccccc3)n2)CCn2nc(CN3CCOCC3)cc21 (centres unmarked) [Example 443, 1-benzyl-N-(4-methyl-2-(morpholinomethyl)-5-oxo-5,6,7,8-tetrahydro-4H-pyrazolo[1,5-a][1,3]diazepin-6-yl)-1H-1,2,4-triazole-3-carboxamide] | 
 | Cc1cc2n(n1)CCC(NC(=O)c1ncn3ccc(C(F)(F)F)cc13)C(=O)N2C (centres unmarked) [Example 76, N-(2,4-dimethyl-5-oxo-5,6,7,8-tetrahydro-4H-pyrazolo[1,5-a][1,3]diazepin-6-yl)-7-(trifluoromethyl)imidazo[1,5-a]pyridine-1-carboxamide] | Ki [2]: 536 nM
